We go through three molecules from patent US20260125346A1, “Isoquinolinone Derivatives and 4H-Quinolizinone Derivatives and Pharmaceutical Compositions Thereof for the Treatment of Disease” (BeOne Medicines I GmbH, priority 2023, published 2026).

In one experiment the test system is WT cell line SK-BR-3. The experiment can be described thus: Phospho-AKT (Ser473) Inhibition Assay (HTRF), SK-BR-3. The class given is cell-based. Particulars: Homo sapiens; SK-BR-3, 1 hour treatment; read-out: p-AKT Inhibition assay (S473) IC50 SK-BR-3. The essentials:
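SK-BR-3 (PI3Kα WT) cells seeded overnight in MEM with insulin, then treated 1 h with 11-point 1:3 dilutions (10 μM to 0.1 nM, 0.1% DMSO). Lysates read for phospho-AKT Ser473 by HTRF after 4 h antibody incubation at room temperature. IC50 from 4-parameter fit, % inhibition normalized to DMSO (max) and 10 μM GDC0077 (min).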
(In general: Time-resolved FRET reads energy transfer from a long-lived donor to a nearby acceptor.)

Experiment [1] deals with PI3Kα (p110[H1047R]/p85) kinase (Homo sapiens, UniProt P42336, H1047R). The experiment can be described thus: PI3Kα (p110[H1047R]/p85) kinase ADP-Glo Assay. Format: biochemical. Particulars: 25 uM ATP; for selectivity: WT/H1047R: ADP-Glo Assay IC50 ratio. The essentials:
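PI3Kα H1047R/p85 pre-incubated 30 min at room temperature with PI(4,5)P2:PS substrate ([…]) and compound ([…]) in HEPES pH 7.5 buffer with MgCl2; ATP ([…]) then added for 120 min. ADP quantified by ADP-Glo luminescence; IC50 from four-parameter logistic fit.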
In general terms: ADP-Glo turns the ADP formed in a reaction into a luminescent signal.

In experiment [2] the test system is PI3Kα H1047R mutated cell line T-47D cells. The experiment is described as follows: Cell Proliferation Assay (CellTiter-Glo), T-47D. As to conditions: for IC50: Homo sapiens, T47D, 72 h, T-47D, 3 days treatment; for Selectivity: SK-BR-3/T-47D (cell proliferation): cell proliferation IC50 ratio. Format: cell-based. A digest of the protocol:
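T-47D cells seeded overnight at 3×10^3/well, then exposed 3 days to 9-point 1:3 dilutions, final […] to 1 nM in 0.1% DMSO. CellTiter-Glo luminescence; relative IC50 from percent inhibition versus medium-only and 0.1% DMSO controls, 4-parameter logistic fit.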

PI3Kα (p110[H1047R]/p85) kinase, sequence (P42336 whole entry H1047R): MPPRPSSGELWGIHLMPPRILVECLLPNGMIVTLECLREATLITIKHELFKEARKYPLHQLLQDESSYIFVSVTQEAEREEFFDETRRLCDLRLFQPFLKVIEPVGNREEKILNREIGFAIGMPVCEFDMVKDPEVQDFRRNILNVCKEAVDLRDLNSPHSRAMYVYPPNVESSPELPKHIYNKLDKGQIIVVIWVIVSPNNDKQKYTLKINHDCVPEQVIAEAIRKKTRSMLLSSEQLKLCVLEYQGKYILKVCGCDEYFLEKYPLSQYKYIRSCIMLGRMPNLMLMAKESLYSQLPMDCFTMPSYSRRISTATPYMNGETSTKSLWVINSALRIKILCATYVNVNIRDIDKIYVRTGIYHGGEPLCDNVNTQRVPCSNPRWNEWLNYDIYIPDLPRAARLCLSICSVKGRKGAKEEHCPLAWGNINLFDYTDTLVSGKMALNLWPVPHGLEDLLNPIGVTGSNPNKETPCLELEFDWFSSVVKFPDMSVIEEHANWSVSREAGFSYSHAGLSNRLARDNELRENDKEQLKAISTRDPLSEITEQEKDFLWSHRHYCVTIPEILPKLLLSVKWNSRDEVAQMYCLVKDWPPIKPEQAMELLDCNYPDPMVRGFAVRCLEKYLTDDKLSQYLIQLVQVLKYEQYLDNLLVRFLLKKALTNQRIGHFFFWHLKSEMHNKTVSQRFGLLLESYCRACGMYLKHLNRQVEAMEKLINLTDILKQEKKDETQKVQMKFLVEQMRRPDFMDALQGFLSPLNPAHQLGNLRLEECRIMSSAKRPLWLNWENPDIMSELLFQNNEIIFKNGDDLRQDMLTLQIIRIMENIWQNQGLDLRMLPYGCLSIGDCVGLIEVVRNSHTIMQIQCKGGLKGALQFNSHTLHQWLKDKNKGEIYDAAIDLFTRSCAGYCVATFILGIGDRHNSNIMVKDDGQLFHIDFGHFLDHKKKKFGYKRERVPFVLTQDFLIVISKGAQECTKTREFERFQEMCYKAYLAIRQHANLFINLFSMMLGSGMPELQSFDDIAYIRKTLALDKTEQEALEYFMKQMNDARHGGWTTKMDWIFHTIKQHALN
PI3Kα (p110[H1047R]/p85) kinase, sequence (P27986 whole entry partner): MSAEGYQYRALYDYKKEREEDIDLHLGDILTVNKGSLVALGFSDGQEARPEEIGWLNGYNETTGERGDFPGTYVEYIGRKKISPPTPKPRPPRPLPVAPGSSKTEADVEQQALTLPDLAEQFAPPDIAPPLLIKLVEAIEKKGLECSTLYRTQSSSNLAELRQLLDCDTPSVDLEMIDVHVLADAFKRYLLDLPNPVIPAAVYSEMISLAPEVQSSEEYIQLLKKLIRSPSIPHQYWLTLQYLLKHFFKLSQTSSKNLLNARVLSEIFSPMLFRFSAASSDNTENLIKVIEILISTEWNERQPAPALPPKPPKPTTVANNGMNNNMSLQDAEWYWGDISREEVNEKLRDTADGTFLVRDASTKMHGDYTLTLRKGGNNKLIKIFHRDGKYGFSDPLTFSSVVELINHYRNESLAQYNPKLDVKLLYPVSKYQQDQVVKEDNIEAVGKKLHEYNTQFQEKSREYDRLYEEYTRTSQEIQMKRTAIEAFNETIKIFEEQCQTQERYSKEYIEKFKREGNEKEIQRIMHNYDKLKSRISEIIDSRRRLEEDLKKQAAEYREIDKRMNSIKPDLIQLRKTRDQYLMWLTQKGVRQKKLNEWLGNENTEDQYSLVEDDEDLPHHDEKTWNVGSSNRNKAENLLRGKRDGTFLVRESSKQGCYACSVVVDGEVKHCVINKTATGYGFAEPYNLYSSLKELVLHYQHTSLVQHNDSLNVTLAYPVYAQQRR

`Cc1cc(C(C)Nc2ccccc2C(=O)O)c2cc(-c3ccc(C#N)cc3)n(C)c(=O)c2c1` (centres unmarked) [Example 4, 2-((1-(3-(4-cyanophenyl)-2,7-dimethyl-1-oxo-1,2-dihydroisoquinolin-5-yl)ethyl)amino)benzoic acid]: the IC50 (as a rule, the concentration needed to halve the response being measured) in the experiment with WT cell line SK-BR-3 was > 10 µM; in experiment [1], 443 nM; in experiment [2], 112 nM. Moreover, in experiment [1], the “selectivity: WT/H1047R” value stood at 8.7. Also, in experiment [2], the “Selectivity: SK-BR-3/T-47D (cell proliferation)” value is >89.

Consider `Cc1cc(C(C)Nc2ccccc2C(=O)O)c2cc(-c3cnn(C)c3)n(C)c(=O)c2c1` (centres unmarked) [Example 91, 2-((1-(2,7-dimethyl-3-(1-methyl-1H-pyrazol-4-yl)-1-oxo-1,2-dihydroisoquinolin-5-yl)ethyl)amino)benzoic acid], for which the results for the IC50 (in the experiment on WT cell line SK-BR-3; in experiment [1]; in experiment [2]) were 4.73 µM, 240 nM and 287 nM, respectively. In experiment [1], the “selectivity: WT/H1047R” value is 40.9. For the same molecule, the “Selectivity: SK-BR-3/T-47D (cell proliferation)” value in experiment [2] is listed as >35.

As for `Cc1cc(C(C)Nc2sc3ccccc3c2C(=O)O)c2cc(-c3ccccc3)n(C)c(=O)c2c1` (centres unmarked) [Example 92, 2-((1-(2,7-dimethyl-1-oxo-3-phenyl-1,2-dihydroisoquinolin-5-yl)ethyl)amino)benzo[b]thiophene-3-carboxylic acid], the results for the IC50 (in the experiment on WT cell line SK-BR-3; in experiment [1]; in experiment [2]) were > 10 µM, 887 nM and > 10000 nM, respectively. The “selectivity: WT/H1047R” value in experiment [1] was >113.
